In patent US20100196521A1, “Formulation for the treatment of hypoxia and related disorders” (priority 2009, published 2010):

Columns and labels:
[1] = test system: sodium nitrite induced hypoxia model mice; assay: Study on blood pH and blood hypoxia (sodium nitrite induced hypoxia animal model); assay type: in vivo, SD mice; conditions: 10 days after
Description: In this study regarding oxygen carrying ability of red blood cells, the test item was the formulation as described in Mixture 3 listed in Table 1 (the formulation). First of all, healthy SD mice were fed with sodium nitrite (17 mg/kg) by gastric gavage for 7 consecutive days to induce the hypoxia animal model. The mice were then randomly distributed into 8 groups: (A) normal mice blank control group, (B) normal mice applied with the formulation group (82.5 μL/kg), (C) model mice applied with vitamin C (62.5 mg/kg) control group, (D) model mice applied with vitamin E (104 mg/kg) control group, (E) model mice applied with vegetable oil (82.5 μL/kg) control group, (F) model mice applied with high dose of the formulation (330 μL/kg), (G) model mice applied with medium dose of the formulation (165 μL/kg), (H) model mice applied with low dose of the formulation (82.5 μL/kg). There were 12 mice for each group. On the 7th day of hypoxia model induction, the formulation was applied topically on the mice in the formulation groups (B, F, G and H), and equal amount of vegetable oil was also topically applied on the mice in the group (E). Vitamins C and E were administrated by gastric gavage to mice in groups (C) and (D) respectively. 10 days after the application of the corresponding items, blood samples were taken in which blood pH, arterial oxygen partial pressure (pO2), and blood oxygen were tested, and the results are as listed below: […]

[2] = test system: methemoglobinemia model mice (sodium nitrite); assay: Sodium nitrite methemoglobinemia model, survival duration; assay type: in vivo, NIH mice; conditions: male quasi; for Survival Duration: observed 90 min; for Prolonged Percentage: vs negative control
Excerpt: This test was designed according to the relevant provisions of The Management of Medicine Registration issued by the State Food and Drug Administration (SFDA) of the People's Republic of China, and The Assemble of Guiding Principle of Pre-clinical Research on New Drugs (in Western Medicine) from the Bureau of Drug Administration, Ministry of Public Health, People's Republic of China. Five test groups were designed for this test, namely the negative control group (A), the positive control medicine group (B), and three groups administrated with the test item at the high (C), medium (D), and low (E) dosage levels. SPF class NIH mice were randomly distributed into 10-12 pieces (male quasi) in each group. The design of experiment was described in Table 5.
In establishing the methemoglobinemia model, a 2% sodium nitrite was injected into abdomen of the mice (male mice: 240 mg/kg, 12 mL/kg; female mice: 260 mg/kg, 13 mL/kg). Stopwatch was immediately started to record time and simultaneously, vegetable oil or the test item was applied to the mice of the respective group. Mice in the positive control group I (group B-I) were administered with Nimodipine through gastric gavage an hour before model was established, while those in the positive control group II were administered Nimodipine through gastric gavage immediately upon the setting up of the model. […]

[3] = test system: cerebral ischemic hypoxia mice; assay: Cerebral circulatory disturbance hypoxia (common carotid artery and vagus ligation), survival; assay type: in vivo, NIH mice; conditions: group B: 2.0 mg/kg hypodermic injection once a day for 5 days
Excerpt: (§1) Five test groups were designed for this test, namely the negative control group (A), the positive control medicine group (B), and three groups administrated with the test item at the high (C), medium (D), and low (E) dosage levels. SPF class NIH mice were randomly distributed into 12 to 14 pieces in each group. The design of experiment was described in Table 15.
Mice in negative control group (A) were topically applied with vegetable oil, whereas those in positive control group (B) were administrated with Nimodipine by hypodermic injection. Mice in groups (C), (D), and (E) received the test item through skin administration. All the five groups received the corresponding item once a day for 5 consecutive days. 50 minutes after the final administration of the test item, and 30 minutes after the final administration of Nimodipine, the mice were given an intraperitoneal injection of Urethane (8%, 0.8 g/kg.bw, 10 mL/kg.bw) as anesthetics. The mice then underwent a separation of the left and right common carotid artery as well as the vagus, and were separately ligated with a No. 4 suture. Survival duration for the mice were immediately recorded with a stopwatch, with results as follows: […]

[4] = test system: decapitated mice (acute cerebral ischemic hypoxia); assay: Global cerebral ischemia (decapitation method), formal test; assay type: in vivo, NIH mice; conditions: group B: 2.0 mg/kg hypodermic injection once a day for 2 days
Excerpt: Five test groups were designed for this test, namely the negative control group (A), the positive control medicine group (B), and three groups administrated with the test item at the high (C), medium (D), and low (E) dosage levels. SPF class NIH mice were randomly distributed into 14 pieces in each group. The design of experiment was described in Table 9. Mice in negative control group (A) were topically applied with vegetable oil, whereas those in positive control group (B) were administrated with Nimodipine by hypodermic injection once a day for 2 consecutive days. Mice in groups (C), (D), and (E) received the test item through skin administration once a day for 7 consecutive days. 60 minutes after the final administration of the test item and vegetable oil to the mice of the corresponding groups, and 30 minutes after the final administration of Nimodipine to the mice of the positive medicine control group, the heads of mice were rapidly severed from the back of ear root with a pair of sharp scissors (decapitation method). The gasping duration and gasping frequency were immediately recorded with a stopwatch The results are shown as follows: […]

[5] = test system: mice in low-pressure hypoxic environment; assay: Hypobaric hypoxia survival test; assay type: in vivo, NIH mice; conditions: group B: 26 mg/kg gastric gavage, male quasi
Description: as §1, with “12” for “12 to 14”, “13.” for “15.”
One hour after administrating the positive control medicine, and 30 minutes after applying the test item or the negative control in the corresponding groups, the mice (6 mice/batch, 2 batches/group) were put in consecutive order into the vacuum drier connected with a suction (built in soda lime to absorb CO2 and water). The suction process was started until the air pressure dropped to a certain negative pressure (Male mouse: 580 mmHg; female mouse: 600 mmHg). Then, stopwatch was used to record the survival duration and the number of survivals in each group within 60 minutes.

[6] = test system: sodium nitrite induced memory consolidated handicap mice; assay: Memory consolidated handicap model, water maze test; assay type: in vivo, NIH mice; conditions: group B: 1.04 mg/kg intramuscular injection
Excerpt: […], a cerebral hypoxic agent, was used to establish this memory consolidated handicap model. Due to its strong oxidation property, it could convert low value iron in the hemoglobin into high value iron and thus affects the hemoglobin to lose its anti-oxidative ability, resulting in Methemoglobinemia disease. Brain tissue is the most sensitive tissue to hypoxia and it would be injured once it experienced memory consolidated handicap. Therefore, in the establishment of this model, the applying of […] would affect the space recognition ability of the mice. This test was designed according to the relevant provisions of The Management of Medicine Registration issued by the State Food and Drug Administration (SFDA) of the People's Republic of China, and The Assemble of Guiding Principle of Pre-clinical Research on New Drugs (in Western Medicine) from the Bureau of Drug Administration, Ministry of Public Health, People's Republic of China. Five test groups were designed for this test, namely the negative control group (A), the positive control medicine group (B), and three groups administrated with the test item at the high (C), medium (D), and low (E) dosage levels. […] The design of experiment was described in Table 11. Each group of mice was continuously trained for 5 days, once in the morning and once in the afternoon, for 60 seconds in each training session. Before the training session on the afternoon of the 5th day, sodium nitrite was administered at dose level of 160 mg/kg to the mice through hypodermic injection to induce the mice to experience memory consolidated handicap symptom. 30 minutes after medication, the water maze test was carried out. The aforesaid test was then repeated on the following morning.

[7] = group D: hypoxia model mice, 104 mg/kg gastric gavage
[8] = group B-I: 62 mg/kg gastric gavage an hour before model
[9] = group B-II: 62 mg/kg gastric gavage immediately upon model
[10] = group C: hypoxia model mice, 62.5 mg/kg gastric gavage

vitamin E
Blood oxygen [1, 7]: 94.0 ± 2.1 % | Blood pH [1, 7]: 7.455 ± 0.049 | Oxygen partial pressure [1, 7]: 10.76 ± 2.14 kPa

COCCOC(=O)C1=C(C)NC(C)=C(C(=O)OC(C)C)C1c1cccc([N+](=O)[O-])c1 (stereo not shown) [Nimodipine]
Survival Duration [2, 8]: 48.44 ± 21.36 min | Prolonged Percentage [2, 8]: 56.26% | Survival Duration [2, 9]: 39.10 ± 17.30 min | Prolonged Percentage [2, 9]: 26.24% | Survival Duration [3]: 55.4 ± 15.2 min | Prolonged Percentage ([3]; vs negative control): 1224.3% | Gasping Duration, Time [4]: 24.6 ± 4.6 s | Gasping Frequency, Times [4]: 14.5 ± 3.6 Times | Gasping Duration, Extension Rate ([4]; vs negative control): 28.6% | Gasping Frequency, Increment Rate ([4]; vs negative control): 25.6%

CC(C)NCC(O)COc1cccc2ccccc12 (stereo not shown) [Propranolol]
Prolonged Percentage ([5]; vs negative control): 108.4% | Survival Duration ([5]; within 60 minutes): 50.40 ± 16.33 min | Survival Percentage ([5]; within 60 minutes): 41.7%

O=C1O[C@H]([C@@H](O)CO)C(O)=C1O [Vitamin C, vitamin C]
Blood oxygen [1, 10]: 93.6 ± 1.3 % | Blood pH [1, 10]: 7.420 ± 0.036 | Oxygen partial pressure [1, 10]: 10.51 ± 0.96 kPa | Time to Reach the Platform ([6]; Day 5, Afternoon (after sodium nitrite 160 mg/kg)): 46.9 ± 15.5 s | Time to Reach the Platform ([6]; Day 5, Morning (before sodium nitrite)): 42.0 ± 24.3 s | Time to Reach the Platform ([6]; Day 6, Morning): 41.7 ± 21.1 s
